“Also recorded” adds a separate entry of the source. Ends that are not written are not given here.

The values that follow come from patent publication US6846907B1, “Osteoporosis treatment” (Hamilton Civic Hospitals Research Centre, priority 1999, dated 2005).

One experiment addresses Interleukin-11. Nature of the experiment: cell-based or functional assay.
The subject of a further experiment is IL-11/IL-11R interaction. Nature of the experiment: Inhibition of the productive interaction of IL-11 with IL-11R by IL-11 binding peptides.
Experiment [1] relates to cocultures of murine bone marrow and calvaria cells. Nature of the experiment: TRAP assay: IL-11 induced osteoclast formation in cocultures of murine bone marrow and calvaria cells. The following applies: for IL-11 induced osteoclast formation (TRAP+ multinucleated cells): 20 ng/ml IL-11, 10, 100 or 1000 ng/ml test substance, 9 days, FIGS. 7A, 7B, 8, 12. The format is cell-based. From the text:
Particular IL-11 antagonists useful in the treatment of IL-11 related bone density disorders may be identified using the TRAP assay and the bone nodule formation assay, discussed herein. The TRAP assay is known in the art and involves co-culturing murine calvarla (osteoblasts) and bone marrow cells in vitro and then quantifying osteoclast formation by counting the number of tartrate-resistant acid phosphatase positive (TRAP+) multinucleated cells. […] These potential IL-11 antagonists may be screened to determine if they are IL-11 antagonists by examining their activity in the TRAP assay and the bone nodule formation assay.
Post menopausal osteoporosis is characterized by a general reduction in bone mass, resulting from an imbalance between osteoblast-mediated bone formation and bone resorption by the osteoclast. While the osteoblast is responsible for the formation of new bone or osteoid, it also appears to control the activation and/or number of osteoclasts by releasing cytokines such as IL-6 or IL-11. This process can be examined using a “TRAP assay” which involves co-culturing murine calvaria (osteoblasts) and bone marrow cells in vitro and then quantifying osteoclast formation by counting the number of tartrate-resistant acid phosphatase positive (TRAP+) multinucleated cells. Ovariectomized (OVX) rats or mice provide a satisfactory animal model for postmenopausal women in studies of osteoporosis.
The effect of IL-11 on osteoclast development in cocultures of murine bone marrow and calvaria cells was examined using standard techniques. Briefly, bone marrow cultures were established by removing femurs from mice, dissecting away soft tissue, and removing the distal and proximal ends of the femur. The marrow was then flushed with 5 ml α MEM and 1.0% penicilin-streptomycin using a 25 gauge needle. The bone marrow cells were then suspended to a concentration of 5,000,000 cells per ml in α MEM containing 15% fetal calf serum (charcoal treated) to remove cells adherent to plastic. The non-adherent cells were then co cultured for an additional 9 days with murine calvaria cells prior to being fixed and stained for TRAPase activity (stains were obtained from Sigma Chemical Co., St. Louis, Mo.). TRAP+MNC's have the ability to form resorption pits in smooth cortical bone slices and are therefore considered to be of osteoclast origin.
The effect of IL-11 on osteoclast development in cocultures of murine bone marrow and calvaria cells was examined by maintaining these cultures in the presence of various specific concentrations of IL-11 for 9 days. After 9 days of culture, the cells were stained for TRAPase activity and the number of multinucleated TRAP+cells were determined. The results of this experiment are depicted in Table I. Data are expressed as mean +/−SEM. […]

Experiment [2] relates to murine calvaria cell culture. Nature of the experiment: Bone nodule formation assay in the presence of exogenous IL-11 and IL-11 antagonists. The format is cell-based. As to conditions: 20 ng/ml exogenous IL-11; for reversal of the inhibitory effect of IL-11 on bone nodule formation: 21 days, FIGS. 9, 10. The method, then:
Bone nodule formation was measured using standard techniques. Briefly, calvaria cell cultures were established as follows: Calvaria cells were obtained from 2 day old fetal mouse calavariae by collagenase digestion. The cells were then cultured for 21 days in the presence of 0.5 mM ascorbic acid and 10 mM β-glycerophosphate. Where indicated in the experimental descriptions below, IL-11 and the mutant IL-11 receptor of experiment 4 were added to the culture at day 0 and every 3-4 days thereafter until the removal of the medium for analysis. Bone nodule formation was quantified by counting alizarin red stain nodules under a light microscope.
The effect of a gp130 binding region mutant soluble IL-11 receptor of type described in Experiment 4 and produced by the process of Experiment 3 on bone nodule formation in the presence of 20 ng/ml of exogenous IL-11 was assessed, and the results are depicted in FIG. 9. […] Thus, IL-11 antagonists such as mutant IL-11Rs can enhance bone nodule formation.
It was desired to determine if bone nodule formation could be modulated in a manner similar to that reported in Example 6 using an IL-11 antagonist peptide such as the one used in Example 5. To achieve this, the procedure of Example 6 was repeated, with the substitution of peptide 1 for the solubilized mutant IL-11 receptor. The results of this experiment are depicted in FIG. 10.

Experiment [3] relates to murine calvaria cells (primary osteoblasts). Nature of the experiment: Bone nodule formation assay, effect of IL-11. The format is cell-based. As to conditions: various concentrations of IL-11; 250 μM ascorbic acid, 10 mM β-glycerol phosphate; FIG. 5. The method, then: The effect of IL-11 on bone formation was examined using the bone nodule formation assay. Murine calvaria cells (primary osteoblasts) were cultured in the presence of 250 μM ascorbic add and 10 mM β-glycerol phosphate, and in the presence of various amounts of interleukin-11. After culturing, the culture media were plated out and the number of bone nodules per plate was counted. The results are shown on the accompanying FIG. 5, where number of bone nodules per plate is plotted as the vertical axis, with the different concentrations of interleukin on the horizontal axis, not to scale. Each bar represents the result on experiments containing a different concentration of interleukin-11, as noted on FIG. 5.

Take “H289→Y289 mutant solubilized IL-11 receptor (from UniProt Q14626 24-370)”: the concentration allowing enhanced bone nodule formation in the presence of 20 ng/ml exogenous IL-11 in the experiment with Interleukin-11 was found to be 10 ng/mL.

RRLRASW [SEQ ID NO. 5]: the “productive interaction of IL-11 with IL-11R” value (“productive interaction” below) in the experiment on IL-11/IL-11R interaction was “capable of inhibiting the productive interaction of IL-11 and IL-11R”.

For RRLRASWTYPASWPCQPHFL [peptide 1], in experiment [1], the “IL-11 induced osteoclast formation (TRAP+ multinucleated cells)” value (“IL-11 induced osteoclast formation” below) was “inhibits IL-11 induced osteoclast formation”. Besides, in experiment [2], the “reversal of the inhibitory effect of IL-11 on bone nodule formation” value is listed as “able to reduce the inhibitory effects”. The “bone nodule formation relative to control samples” value in experiment [2] (50 ng/ml peptide, FIG. 10) is “allowed bone nodule formation in excess of that seen in the control samples”. For the same molecule, the “productive interaction” value in the experiment with IL-11/IL-11R interaction was “binds IL-11 and prevents its productive interaction with IL-11R”.

For the molecule “Ser Ile Leu Arg Pro Asp Pro Pro Gin Gly Leu Arg Val Glu Ser Val Pro Gly Tyr Pro (SILRPDPPQGLRVESVPGYP; listed as Homo sapiens) [SEQ. ID. NO. 6]”, in the experiment on IL-11/IL-11R interaction, the “productive interaction” value was “has been found to inhibit the productive interaction between IL-11 and IL-11R”.

For “Thr Tyr Pro Ala Ser Trp Pro Cys Gin Pro His Phe Leu Leu Lys Phe Arg Leu Gln Tyr (TYPASWPCQPHFLLKFRLQY; listed as Homo sapiens) [peptide 2]”, the “IL-11 induced osteoclast formation” value in experiment [1] is “does not”. Also, the “reversal of the inhibitory effect of IL-11 on bone nodule formation” value in experiment [2] was “unable to reduce the inhibition of nodule formation by IL-11”.

B1: H289→Y289 mutant solubilized IL-11 receptor: gp130 binding region mutant (H289 to Y) recombinant soluble human IL-11 receptor of Example 3 (protein)
chain: SPCPQAWGPPGVQYGQPGRSVKLCCPGVTAGDPVSWFRDGEPKLLQGPDSGLGHELVLAQADSTDEGTYICQTLDGALGGTVTLQLGYPPARPVVSCQAADYENFSCTWSPSQISGLPTRYLTSYRKKTVLGADSQRRSPSTGPWPCPQDPLGAARCVVHGAEFWSQYRINVTEVNPLGASTRLLDVSLQSILRPDPPQGLRVESVPGYPRRLRASWTYPASWPCQPHFLLKFRLQYRPAQHPAWSTVEPAGLEEVITDAVAGLPYAVRVSARDFLDAGTWSTWSPEAWGTPSTGTIPKEIPAWGQLHTQPEVEPQVDSPAPPRPSLQPHPRLLDHRDSVEQVAVLA
modifications: left off: small tags and cut ends
In the case of B1, the “IL-11 induced osteoclast formation” value in experiment [1] is “capable of inhibiting IL-11-induced osteoclast formation”. Besides, the “bone nodule formation relative to the level in the absence of exogenous IL-11” value in experiment [2] (10 ng/ml mutant receptor, FIG. 9) is “enhanced bone nodule formation”. For the same molecule, in experiment [2], the “reversal of the inhibitory effect of IL-11 on bone nodule formation” value was “can reverse the effect of exogenous IL-11”.

B2: IL-11: cytokine interleukin-11 (protein, UniProt P20809 22-199, looked up)
Interleukin-11: PGPPPGPPRVSPDPRAELDSTVLLTRSLLADTRQLAAQLRDKFPADGDHNLDSLPTLAMSAGALGALQLPGVLTRLRADLLSYLRHVQWLRRAGGSSLKTLEPELGTLQARLDRLLRRLQLLMSRLALPQPPPDPPAPPLAPPSSAWGGIRAAHAILGGLHLTLDWAVRGLLLLKTRL
Regarding B2, the “number of bone nodules per plate” value in experiment [3] is “number of bone nodules per plate decreased; also recorded: inhibits bone formation”. Further, the “osteoclast formation in vitro, effect of IL-11” value in experiment [1] (cocultures of murine calvaria and bone marrow cells) is listed as “potent stimulator of osteoclast formation”.
